Read-outs that look alike come from different tables or passages of the source.
Key:
[1] = system: advanced solid tumors; settings: patients with advanced solid tumors; cited from earlier work
[2] = system: human tumor cell xenografts in mice; set-up: method as in El Bawab S, personal communication; settings: defined by preclinical modeling; ref El Bawab S, personal communication; cited from earlier work
[3] = system: patient-derived renal cell carcinoma xenografts; set-up: method as in earlier work; settings: with sunitinib, cabozantinib, axitinib; Friese-Hamim M, personal communication; cited from earlier work
[4] = system: MetAP2; assay: Met-EF1α pharmacodynamic biomarker in white blood cells; type: in vivo, human; settings: 12 mg once daily and higher, from cycle 1, day 15 onward; no obvious dose correlation
Excerpt: (§1) Tumor biopsies were collected during the screening period and on cycle 2, day 1. White blood cell (WBC) samples were collected during the screening period, predose on days 1, 2, 8, and 15 of cycle 1 and postdose on days 1 and 15 of cycle 1. In addition, WBC samples were collected predose on days 1 and 15 of cycle 2.
(§2) No formal significance level was defined for this study and all analyses were considered descriptive.

[5] = system: MetAP2; assay: Met-EF1α pharmacodynamic biomarker in tumor biopsies; type: in vivo, human; settings: cycle 2, day 1
Excerpt: as §1, §2

[6] = system: advanced solid tumors; assay: Antitumor activity by RECIST v1.1; type: in vivo, human
Experimental: Efficacy endpoints included best overall response [BOR: complete response (CR), partial response (PR), stable disease (SD), or progressive disease] according to the RECIST v1.1. criteria ([20]), clinical benefit (defined as CR, PR, or SD for ≥12 weeks) and progression-free survival (PFS). PFS was defined as time from first dose to objective disease progression or death, whichever occurred first. CT scans or MRI were performed predose to document the baseline tumor status using the most appropriate criteria for the malignancy type. Target and non-target lesions were selected on the basis of the initial scan. Clinical efficacy was assessed by the investigators according to RECIST v1.1 every two cycles (starting on day 1 of cycle 3).
For the efficacy analysis, objective response and clinical benefit were summarized and 95% exact Clopper–Pearson confidence intervals (CI) were estimated ([21]). Kaplan–Meier estimates were calculated for PFS and the CI for the median PFS was calculated according to Brookmeyer and Crowley ([22]).

[7] = cited from earlier work
[8] = system: metastatic renal carcinoma; set-up: method as in PMID 10561320; settings: phase II, patients with metastatic renal carcinoma; cited from earlier work
[9] = cited from earlier work; remark: listed apart in the source

In the case of `CO[C@@H](C(=O)N[C@H]1CC[C@@H](OC(=O)C2CCCCC2)CNC1=O)[C@H](O)[C@@H](O)[C@H](O)/C=C/C(C)(C)C` [LAF389], the Objective responses [1] is given as “failed to show any objective responses”.

In the case of `O=C(NCc1cc(F)cc(F)c1)[C@@]1(O)CCN(c2ccc3[nH]ccc3c2)C1=O` [M8891], the “Target Met-EF1α level expected to be correlated with efficacy” value [2] is given as 125 μg/mg protein, the “Antitumor activity in combination with VEGFR-targeted TKIs” value [3] is given as “strong and durable antitumor activity” and the “Pharmacodynamic response in WBCs” value [4] is given as “low and variable pharmacodynamic response”. For the same compound, the “Met-EF1α accumulation in tumors” value ([5]; 7 to 35 mg once daily) was “tended to increase up to 35 mg once daily in a dose-dependent manner”, the “Met-EF1α levels in tumor” value ([5]; ≥35 mg once daily) was at least 125 μg/mg protein and the “Duration of stable disease” value ([6]; 7 patients with BOR of SD) was 42 to 123 days. The Objective responses ([6]; all doses, n = 27) was “no objective responses”.

For `CO[C@@H]1[C@H](OC(=O)NC(=O)CCl)CC[C@]2(CO2)[C@H]1[C@@]1(C)O[C@@H]1CC=C(C)C` [TNP-470], the “Pharmacokinetic variability in phase I studies” value [7] is given as “high pharmacokinetic variability”, the Objective responses [8] is given as “failed to show any significant objective responses” and the “Neurotoxicity in phase I studies” value [9] is given as “considerable neurotoxicity”.

— publication PMC10448909 (Cancer Research Communications, 2023)
